“And” between values parts separate entries of the source, which are not always exact repeats. Equal values may be shown once.
Legend:
HEK293T cells [1] = test: Cytotoxicity: necrosis induction (red fluorescent dye for permeable plasma membranes); assay type: cell-based; conditions: 1 µM, 24 h, necrotic cell count normalized to 0.1% DMSO, single replicates;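 also: compounds applied in DMEM high glucose with 0.1% FCS and 0.1% DMSO, necrotic HEK293T cells counted by red staining of cells whose plasma membranes had become permeable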
Gal4-VP16 = assay type: cell-based; conditions: 1 µM; vs. DMSO ctrl; single replicates n=1-3
Experimental: Five hours after transfection, the cells were incubated with the NR3 CG compound candidates at the recommended concentrations by changing the medium to Opti-MEM supplemented with penicillin (100 µ/mL) and streptomycin (100 µg/mL) additionally containing 0.1% DMSO and the respective test compound or 0.1% DMSO alone as untreated control. Firefly (reporter) and renilla (control) luminescence were measured after 14–16 h incubation using the Dual-Glo® Luciferase Assay System (Promega, Fitchburg, Wisconsin, USA; #E2980) according to manufacturer’s protocol on a Tecan Spark® 10M multimode microplate reader (Tecan Group AG, Männedorf, Switzerland). To obtain relative light units (RLU) firefly luminescence was divided by renilla luminescence and multiplied by 1000. Fold activation was obtained by dividing the mean RLU of a test sample by the mean RLU of the DMSO (0.1%) control. Experiments were performed in singlets in at least three biologically independent repeats.
are labeled according to their mode of action (yellow - agonist, grey - antagonist, grey with label D - degrader) and grouped by their
NR3 subfamily main targets.
reporter activity at the indicated concentrations expressed as mean fold reporter gene activity (n=3).

ABL1 = target: T1, ABL1 (Homo sapiens, UniProt P00519); test: Liability panel screening by DSF: ABL1; assay type: binding; conditions: DSF, 20 µM, n=2; read-out: Mean ΔTM ABL1
T1 construct: made in house
How it was run: (§1)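 Thermal shift: in-house recombinant protein at 2 µM in 10 mM HEPES pH 7.5 with 500 mM NaCl, SYPRO Orange 1:1000, heated at 3 °C/min to 85 °C in technical duplicates. Tm is the Boltzmann inflection point, reported as ∆Tm in K.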

AURKA = target: T2, AURKA (Homo sapiens, UniProt O14965); test: Liability panel screening by DSF: AURKA; assay type: binding; conditions: DSF, 20 µM, n=2; read-out: Mean ΔTM AURKA
T2 construct: made in house
T2 sequence (O14965 1-403): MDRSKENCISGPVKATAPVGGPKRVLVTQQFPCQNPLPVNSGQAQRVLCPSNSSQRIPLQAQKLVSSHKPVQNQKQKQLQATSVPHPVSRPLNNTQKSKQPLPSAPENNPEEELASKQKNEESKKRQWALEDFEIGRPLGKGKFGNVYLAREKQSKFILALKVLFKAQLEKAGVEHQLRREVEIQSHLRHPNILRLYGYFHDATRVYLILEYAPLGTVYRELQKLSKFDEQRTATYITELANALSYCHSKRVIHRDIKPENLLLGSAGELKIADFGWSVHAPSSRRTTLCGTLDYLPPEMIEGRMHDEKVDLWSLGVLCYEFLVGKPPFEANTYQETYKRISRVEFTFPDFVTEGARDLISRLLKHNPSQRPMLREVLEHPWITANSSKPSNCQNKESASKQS
How it was run: as §1

CDK2 = target: T3, CDK2 (Homo sapiens, UniProt P24941); test: Liability panel screening by DSF: CDK2; assay type: binding; conditions: DSF, 20 µM, n=2; read-out: Mean ΔTM CDK2
T3 construct: made in house
How it was run: as §1

FGFR3 = target: T4, FGFR3 (Homo sapiens, UniProt P22607); test: Liability panel screening by DSF: FGFR3; assay type: binding; conditions: DSF, 20 µM, n=2; read-out: Mean ΔTM FGFR3
T4 construct: made in house
How it was run: as §1

GSK3B = target: T5, GSK3B (Homo sapiens, UniProt P49841); test: Liability panel screening by DSF: GSK3B; assay type: binding; conditions: DSF, 20 µM, n=2; read-out: Mean ΔTM GSK3B
T5 construct: made in house

BRD4 = target: T6, BRD4 (Homo sapiens, UniProt O60885); test: Liability panel screening by DSF: BRD4; assay type: binding; conditions: DSF, 20 µM, n=2; read-out: Mean ΔTM BRD4
T6 construct: This panel comprised ten highly ligandable kinases and bromodomains; made in house
How it was run: as §1

BRPF1 = target: T7, BRPF1 (Homo sapiens, UniProt P55201); test: Liability panel screening by DSF: BRPF1; assay type: binding; conditions: DSF, 20 µM, n=2; read-out: Mean ΔTM BRPF1
T7 construct: This panel comprised ten highly ligandable kinases and bromodomains; made in house
T7 sequence (P55201 628-732 limits assumed): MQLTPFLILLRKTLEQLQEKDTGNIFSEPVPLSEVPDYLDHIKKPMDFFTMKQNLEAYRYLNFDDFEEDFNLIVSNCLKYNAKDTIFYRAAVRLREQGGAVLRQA
How it was run: as §1

CSNK1D = target: T8, CSNK1D (Homo sapiens, UniProt P48730); test: Liability panel screening by DSF: CSNK1D; assay type: binding; conditions: DSF, 20 µM, n=2; read-out: Mean ΔTM CSNK1D
T8 construct: made in house
How it was run: as §1

MAPK1 = target: T9, MAPK1 (Homo sapiens, UniProt P28482); test: Liability panel screening by DSF: MAPK1; assay type: binding; conditions: DSF, 20 µM, n=2; read-out: Mean ΔTM MAPK1
T9 construct: made in house
How it was run: as §1

TRIM24 = target: T10, TRIM24 (Homo sapiens, UniProt O15164); test: Liability panel screening by DSF: TRIM24; assay type: binding; conditions: DSF, 20 µM, n=2; read-out: Mean ΔTM TRIM24
T10 construct: This panel comprised ten highly ligandable kinases and bromodomains; made in house
T10 sequence (O15164 899-1004 limits assumed): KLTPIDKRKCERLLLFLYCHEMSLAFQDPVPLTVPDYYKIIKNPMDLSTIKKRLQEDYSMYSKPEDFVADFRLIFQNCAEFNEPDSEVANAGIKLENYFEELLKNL
How it was run: as §1

[2] = system: NF-κB activity in HEK293 NF-κB reporter cells; test: NF-kB activity assay (GFP reporter, ionomycin/PMA); assay type: cell-based; conditions: for Mean NFκB response: n=3
How it was run: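 HEK293 NF-κB GFP reporter cells given compound in 0.1% DMSO for 4 h, then stimulated with ionomycin 100 ng/mL plus PMA 10 ng/mL. Imaged every 90 min over 24 h; GFP-positive cell count normalized to confluence, three independent biological replicates.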

[3] = system: ATF6 activity in Hela ATF6 reporter cells; test: Endoplasmic reticulum stress assay (ATF6 Renilla luciferase reporter, tunicamycin); assay type: cell-based; conditions: for activity at 1 µM: Homo sapiens, HeLa, single replicates n=1 to n=5, read-out: ER stress [rel. ATF6 activity]
How it was run: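 HeLa ATF6 Renilla reporter cells were pretreated 4 h with compounds in 0.1% DMSO, then stimulated with tunicamycin (100 ng/mL) for 18 h. Renilla luminescence (DualGlo) was normalized to 0.1% DMSO control; five independent experiments.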

NR3C1 (GR) = conditions: cited from earlier work
NR3C2 (MR) = conditions: cited from earlier work
HEK293T cells [4] = test: Cytotoxicity: metabolic activity (WST-8 / CCK-8 assay); conditions: 1 µM; HEK293T, 24 h; WST-8; normalized to 0.1% DMSO; single replicates
HEK293T cells [5] = test: Cytotoxicity: growth-rate (change in confluence over 24 h); conditions: 1 µM, normalized to 0.1% DMSO control, single replicates (n=1...)
HEK293T cells [6] = test: Cytotoxicity: apoptosis induction (caspase-3/7 DEVD fluorogenic DNA dye); conditions: 1 µM; HEK293T, 24 h; apoptotic cell count normalized to 0.1% DMSO; single replicates
NR3C3 (PR) = conditions: (lit.); ref Supplementary Table 1; read-out: Potency [nM] EC50, NR3C3 (PR); cited from earlier work

T8 sequence (P48730 whole entry, species assumed): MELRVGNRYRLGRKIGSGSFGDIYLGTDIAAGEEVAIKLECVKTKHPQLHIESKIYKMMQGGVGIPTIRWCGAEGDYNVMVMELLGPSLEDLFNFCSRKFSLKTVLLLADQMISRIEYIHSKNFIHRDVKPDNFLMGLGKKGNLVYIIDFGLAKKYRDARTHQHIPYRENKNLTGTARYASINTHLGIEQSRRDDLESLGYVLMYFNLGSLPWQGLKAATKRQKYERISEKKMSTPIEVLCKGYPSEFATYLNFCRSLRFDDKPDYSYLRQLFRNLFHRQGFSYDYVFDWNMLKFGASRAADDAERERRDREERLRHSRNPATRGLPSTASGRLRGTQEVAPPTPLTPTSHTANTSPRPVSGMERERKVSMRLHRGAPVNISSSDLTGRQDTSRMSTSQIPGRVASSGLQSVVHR
T1 sequence (P00519 whole entry, species assumed): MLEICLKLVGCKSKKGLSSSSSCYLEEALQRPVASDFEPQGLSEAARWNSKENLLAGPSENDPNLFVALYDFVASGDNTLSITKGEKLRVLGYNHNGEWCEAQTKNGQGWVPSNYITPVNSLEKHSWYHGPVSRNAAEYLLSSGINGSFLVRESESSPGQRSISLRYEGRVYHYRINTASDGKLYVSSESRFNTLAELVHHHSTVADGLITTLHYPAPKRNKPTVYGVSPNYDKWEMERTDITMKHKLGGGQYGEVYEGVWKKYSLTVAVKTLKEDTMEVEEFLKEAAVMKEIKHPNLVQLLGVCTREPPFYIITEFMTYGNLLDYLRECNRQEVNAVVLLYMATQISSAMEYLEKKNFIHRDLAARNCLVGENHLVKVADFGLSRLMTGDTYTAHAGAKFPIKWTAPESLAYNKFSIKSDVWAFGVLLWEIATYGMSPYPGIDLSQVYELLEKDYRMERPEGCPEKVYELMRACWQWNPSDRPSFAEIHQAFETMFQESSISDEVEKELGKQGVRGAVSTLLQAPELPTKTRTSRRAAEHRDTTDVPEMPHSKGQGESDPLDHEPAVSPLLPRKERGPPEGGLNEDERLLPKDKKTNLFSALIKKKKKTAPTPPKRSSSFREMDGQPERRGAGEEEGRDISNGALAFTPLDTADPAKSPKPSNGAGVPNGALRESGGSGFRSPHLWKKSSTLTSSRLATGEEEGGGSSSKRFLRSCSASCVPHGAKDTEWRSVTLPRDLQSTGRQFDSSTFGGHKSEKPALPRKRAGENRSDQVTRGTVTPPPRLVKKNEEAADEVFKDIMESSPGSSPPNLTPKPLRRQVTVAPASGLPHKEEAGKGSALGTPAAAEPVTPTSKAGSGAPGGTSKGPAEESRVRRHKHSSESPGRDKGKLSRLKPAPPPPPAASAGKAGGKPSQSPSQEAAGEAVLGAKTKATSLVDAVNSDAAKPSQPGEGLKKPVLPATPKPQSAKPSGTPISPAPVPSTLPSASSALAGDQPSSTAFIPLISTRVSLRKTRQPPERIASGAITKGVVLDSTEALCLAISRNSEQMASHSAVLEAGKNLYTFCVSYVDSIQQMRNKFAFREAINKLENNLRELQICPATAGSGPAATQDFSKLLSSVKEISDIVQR
T9 sequence (P28482 whole entry, species assumed): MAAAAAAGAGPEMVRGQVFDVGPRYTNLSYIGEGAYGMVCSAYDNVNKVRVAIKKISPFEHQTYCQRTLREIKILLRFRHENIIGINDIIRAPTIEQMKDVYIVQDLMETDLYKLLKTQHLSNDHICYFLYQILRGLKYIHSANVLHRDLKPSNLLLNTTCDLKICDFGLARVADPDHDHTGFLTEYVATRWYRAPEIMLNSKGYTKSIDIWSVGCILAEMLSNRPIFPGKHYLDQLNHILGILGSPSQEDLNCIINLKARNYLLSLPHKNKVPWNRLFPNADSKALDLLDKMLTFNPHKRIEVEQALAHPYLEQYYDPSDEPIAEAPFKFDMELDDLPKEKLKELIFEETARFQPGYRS
T5 sequence (P49841 whole entry, species assumed): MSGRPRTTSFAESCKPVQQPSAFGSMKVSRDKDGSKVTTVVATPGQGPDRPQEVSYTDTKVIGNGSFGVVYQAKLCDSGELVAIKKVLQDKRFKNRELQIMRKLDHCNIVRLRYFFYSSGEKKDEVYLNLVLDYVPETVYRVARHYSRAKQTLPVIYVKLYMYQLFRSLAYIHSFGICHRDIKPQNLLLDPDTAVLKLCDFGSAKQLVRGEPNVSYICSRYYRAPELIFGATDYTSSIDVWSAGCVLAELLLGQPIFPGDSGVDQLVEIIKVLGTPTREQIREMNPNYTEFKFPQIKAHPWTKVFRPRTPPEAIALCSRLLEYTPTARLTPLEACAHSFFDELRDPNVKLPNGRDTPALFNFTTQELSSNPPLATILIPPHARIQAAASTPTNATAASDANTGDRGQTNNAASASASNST
T4 sequence (P22607 23-806, species assumed): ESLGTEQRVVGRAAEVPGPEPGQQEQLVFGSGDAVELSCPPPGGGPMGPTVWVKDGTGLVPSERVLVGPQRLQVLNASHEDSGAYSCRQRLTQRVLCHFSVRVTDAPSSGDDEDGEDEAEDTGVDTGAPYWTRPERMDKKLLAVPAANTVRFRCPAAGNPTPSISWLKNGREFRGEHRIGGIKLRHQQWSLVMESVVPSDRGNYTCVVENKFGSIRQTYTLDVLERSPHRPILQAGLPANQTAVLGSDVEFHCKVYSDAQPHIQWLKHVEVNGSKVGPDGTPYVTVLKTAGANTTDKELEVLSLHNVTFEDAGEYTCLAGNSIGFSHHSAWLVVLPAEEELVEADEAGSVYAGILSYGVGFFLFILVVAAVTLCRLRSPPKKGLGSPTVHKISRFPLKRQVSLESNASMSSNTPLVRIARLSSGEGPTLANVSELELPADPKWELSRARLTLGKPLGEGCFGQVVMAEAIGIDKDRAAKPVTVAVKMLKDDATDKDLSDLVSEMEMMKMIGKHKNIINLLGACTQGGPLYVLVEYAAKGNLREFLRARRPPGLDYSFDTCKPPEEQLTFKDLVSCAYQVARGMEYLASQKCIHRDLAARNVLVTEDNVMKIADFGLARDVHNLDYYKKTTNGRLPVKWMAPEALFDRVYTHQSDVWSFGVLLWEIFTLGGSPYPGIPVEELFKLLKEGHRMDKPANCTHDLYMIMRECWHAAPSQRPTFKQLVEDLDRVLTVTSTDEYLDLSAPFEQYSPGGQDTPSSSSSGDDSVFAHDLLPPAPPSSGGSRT

SMILES	Necrosis induction [NI] (HEK293T cells [1])	ΔTm at 20 µM (ABL1) [°C]	ΔTm at 20 µM (AURKA) [°C]	ΔTm at 20 µM (CDK2) [°C]	ΔTm at 20 µM (GSK3B) [°C]	ΔTm at 20 µM (BRD4) [°C]	ΔTm at 20 µM (BRPF1) [°C]	ΔTm at 20 µM (CSNK1D) [°C]	ΔTm at 20 µM (MAPK1) [°C]	ΔTm at 20 µM (TRIM24) [°C]	Mean NFκB response ([2]; 1 µM, 1,5 h)	Mean NFκB response ([2]; 1 µM, 4,5 h)	Mean NFκB response ([2]; 1 µM, 7,5 h)	Mean NFκB response ([2]; 1 µM, 10,5 h)	Mean NFκB response ([2]; 1 µM, 13,5 h)	Mean NFκB response ([2]; 1 µM, 16,6 h)	Mean NFκB response ([2]; 1 µM, 19,5 h)	Mean NFκB response ([2]; 1 µM, 22,5 h)	Mean NFκB response ([2]; 1 µM, 3 h)	Mean NFκB response ([2]; 1 µM, 6 h)	other results
CC(=O)OCC(=O)[C@@]1(O)CC[C@H]2[C@@H]3CCC4=CC(=O)CC[C@]4(C)[C@@]3(F)[C@@H](O)C[C@@]21C [Fludrocortisone acetate]	1.13 and 1.14 and 1.54 and 1.19	-0.12	0.09	-0.73	-0.61	-0.79	-0.43	-0.08	0.55	-0.96	3820.94 GFP+-cells/confluence ∙ 1000	4296.72 GFP+-cells/confluence ∙ 1000	6095.26 GFP+-cells/confluence ∙ 1000	8052.10 GFP+-cells/confluence ∙ 1000	9784.85 GFP+-cells/confluence ∙ 1000	11376.50 GFP+-cells/confluence ∙ 1000	12926.78 GFP+-cells/confluence ∙ 1000	13912.05 GFP+-cells/confluence ∙ 1000	3762.70 GFP+-cells/confluence ∙ 1000	5124.39 GFP+-cells/confluence ∙ 1000	VP16 control [fold reporter gene activity] (Gal4-VP16): 0.96 fold reporter gene activity and 0.81 fold reporter gene activity and 0.89 fold reporter gene activity; ΔTm at 20 µM (FGFR3): -0.06 °C; Mean NFκB response ([2]; 1 µM, 9 h): 7003.20 GFP+-cells/confluence ∙ 1000; Mean NFκB response ([2]; 1 µM, 12 h): 8806.82 GFP+-cells/confluence ∙ 1000; Mean NFκB response ([2]; 1 µM, 15 h): 10595.86 GFP+-cells/confluence ∙ 1000; Mean NFκB response ([2]; 1 µM, 18 h): 12286.70 GFP+-cells/confluence ∙ 1000; Mean NFκB response ([2]; 1 µM, 21 h): 13535.05 GFP+-cells/confluence ∙ 1000; Mean NFκB response ([2]; 1 µM, 24 h): 14315.67 GFP+-cells/confluence ∙ 1000; NF-κB activity (inflammatory response to ionomycin/PMA) ([2]; HEK293 NF-κB reporter cells, compounds at recommended concentrations, imaged over 24 h, n = 3): consistently delayed and strongly diminished NF-κB activity; ATF6 activity (tunicamycin-induced endoplasmic reticulum stress) ([3]; Hela ATF6 reporter cells, tunicamycin 100 ng/mL, 18 h, compounds at recommended concentrations, n = 5): Consistently weaker ATF6 activity; activity at 1 µM [3]: 82%; EC50 (NR3C1 (GR); (lit.), ref Supplementary Table 1, read-out: Potency [nM] EC50, NR3C1 (GR)): 4 nM; rel. activity from literature, NR3C1 (GR): fold activation (NR3C1 (GR)): ~ 1000 fold; rel. activity from literature, NR3C2 (MR): fold activation (NR3C2 (MR)): ~ 41 fold; Metabolic activity [MA] (HEK293T cells [4]): 1.08 (2×) and 0.93 and 1.06 and 1.01 and 0.96 and 1.04 and 1.00; Growth rate [GR] (HEK293T cells [5]): 1.03 and 5.01 and 1.16 and 1.40 and 1.04 and 0.96 and 0.90 and 1.39 and 3.00 and 9.23; Apoptosis induction [AI] (HEK293T cells [6]): 1.14 and 1.39 and 1.56 and 1.37 and 1.13 and 1.61
N#Cc1ccc(N2N=C3c4ccc(C(=O)O)cc4CC[C@@H]3[C@@H]2C2CCCC2)cc1Cl [PF-03882845]	1.10 and 0.88 and 0.95 and 1.46	-2.47	0.42	-2.04	0	0	-8.37	-4.9	-9.49	1.43	2659.67 GFP+-cells/confluence ∙ 1000	3143.33 GFP+-cells/confluence ∙ 1000	6360.00 GFP+-cells/confluence ∙ 1000	17053.33 GFP+-cells/confluence ∙ 1000	25306.67 GFP+-cells/confluence ∙ 1000	31613.33 GFP+-cells/confluence ∙ 1000	36320.00 GFP+-cells/confluence ∙ 1000	39133.33 GFP+-cells/confluence ∙ 1000	2686.67 GFP+-cells/confluence ∙ 1000	3810.00 GFP+-cells/confluence ∙ 1000	Mean NFκB response ([2]; 1 µM, 9 h): 11590.00 GFP+-cells/confluence ∙ 1000; Mean NFκB response ([2]; 1 µM, 12 h): 21213.33 GFP+-cells/confluence ∙ 1000; Mean NFκB response ([2]; 1 µM, 15 h): 28830.00 GFP+-cells/confluence ∙ 1000; Mean NFκB response ([2]; 1 µM, 18 h): 34136.67 GFP+-cells/confluence ∙ 1000; Mean NFκB response ([2]; 1 µM, 21 h): 37763.33 GFP+-cells/confluence ∙ 1000; Mean NFκB response ([2]; 1 µM, 24 h): 40546.67 GFP+-cells/confluence ∙ 1000; activity at 1 µM [3]: 94%; EC50 (NR3C2 (MR); (lit.), ref Supplementary Table 1, read-out: Potency [nM] EC50, NR3C2 (MR)): 9 nM; EC50 (NR3C3 (PR)): 416 nM; Apoptosis induction [AI] (HEK293T cells [6]): 0.00 (4×) and 0.46 and 0.70

From PMC11790914, “Chemogenomics for steroid hormone receptors (NR3)” (Communications Chemistry, 2025)
